Experimental data taken from article PMC7070898 (Clinical and Translational Science, 2019).

Assay: Holter ECG, concentration-QTcF, by-time point and categorical analysis
Format: in vivo, human
Settings: for mean ΔΔQTcF, by‐time point analysis: 100 mg dose group (n = 6); for Predicted mean ΔΔQTcF: linear mixed model; for Cmax: human, in vivo, Geometric mean Cmax

SMILES: C=CC(=O)N1CCC(CNc2ncnc(N)c2-c2ccc(Oc3ccccc3)cc2)CC1 [evobrutinib]
- Geometric mean Cmax (25 mg dose group, day 1, parts 1 and 2 pooled): 86.48 ng/mL
- treatment‐emergent T wave morphological abnormalities (50 mg and 100 mg dose groups, day 1, 6‐hour and 8‐hour postdose): reported in two evobrutinib‐treated subjects
- mean ΔΔQTcF, by‐time point analysis (6‐hour postdose): 7.1 ms
- mean ΔΔQTcF, by‐time point analysis (8‐hour postdose): 5.6 ms
- mean ΔΔQTcF range (100 mg dose group, three time points): 5.6 to 7.2 ms
- Geometric mean Cmax (500 mg dose group, day 1): 1,512.3 ng/mL
- subjects with change from baseline in QTcF between 30 ms and 60 ms (2 of 81 subjects, both in the 200 mg dose group): 2.5%
- mean ΔΔQTcF over the range of doses (all time points, except the 100 mg dose group): < 5 ms
- absolute QTcF value (any dose group, any time point): ≤ 450 ms
- Predicted mean ΔΔQTcF (at geometric mean Cmax of 75 mg dose group): -0.82 ms
- Predicted mean ΔΔQTcF (at geometric mean Cmax of 200 mg dose group): -0.94 ms
- Predicted mean ΔΔQTcF (at geometric mean Cmax of 350 mg dose group): -0.98 ms
- Cmax (50 mg, 50 mg dose group, day 1): 234 ng/mL
- Cmax (75 mg, 75 mg dose group, day 1): 254 ng/mL
- Cmax (100 mg, 100 mg dose group, day 1): 309 ng/mL
- Cmax (350 mg, 350 mg dose group, day 1): 846 ng/mL
